Results reported in US20120122908A1, “Novel C-4 Substituted Retinoids” (University of Maryland, priority 2000, published 2012).
Like-named read-outs stand apart in the source and are kept apart here.

Assays:
ATRA 4-hydroxylase = ATRA 4-hydroxylase (Mesocricetus auratus, UniProt A0A1U7QD41); assay: Hamster liver microsome assay of ATRA metabolism (ATRA 4-hydroxylase inhibition); format: biochemical
Experimental: Washed hamster liver microsomes were prepared as follows: Livers are removed from sacrificed animals, rinsed in ice-cold 0.9% NaCl solution and homogenized in a 3-fold volume of 0.25 M sucrose-0.05 M Tris-HCl (pH 7.4) using a blender. Microsomes are isolated by differential centrifugation (10,000×g, 20 minutes; 100,000×g, 60 minutes; 4° C.) using a well-known technique (Van Wauwe, J.; Van Nyen, G.; Coene, M-C.; Stoppie, P.; Cols, W.; Goossens, J, Borghgraef, P.; Janssen, P A J, Liarozole, an Inhibitor of Retinoic Acid Metabolism, Exerts Retinoid-Mimetic Effects, In Vivo. J. Pharmacol. Expt. Ther. 261, 773-779, 1992). The microsomes are suspended in PBS buffer (pH 7.4), in 1 ml aliquots and stored at −70° C. until required.
The standard reaction mixture (total of 400 μl) is composed of assay buffer, 140 μl; microsomes, 100 μl ([…]); NADPH, 100 μl ([…]); and a C-4 substituted ATRA analog dissolved in DMSO, 40 μl. After a 3 minute preincubation at 37° C., the reaction is initiated by addition of 20 μl of [11,12-^3H]-ATRA (20 μCi/ml). The incubation is carried out for 30 minutes under oxygen with shaking in a water bath at 37° C. The reaction is stopped by acidification with 0.1 ml formic acid, and the samples are extracted (×2) with EtOAc (2 ml) containing 0.05% butylated hydroxyanisole. The combined organic extracts are evaporated in vacuo, dissolved in 200 μl of the mobile phase for HPLC. An aliquot is analyzed for tritium content by liquid scintillation spectrometry. Usually, >95% of the added radioactivity is recovered. Most of the samples (150 μl) are analyzed on a 10 (m C18 Bondapak column (3.9×300 mm, Millipore), eluted with a multi-linear gradient solvent system: i, MeOH—H2O—HCOOH (60:40:0.05) containing 10 mM ammonium acetate (100 (0%) and ii, MeOH (0 (100%) at 2 ml/min. The radioactivity is measured by an on-line radio-detector. The Rts of ATRA, 4-hydroxy-ATRA and 4-oxo-ATRA are determined by UV absorbance at 350 nm in separate cuvettes. Typically, 80±5% of [11, 12-^3H]ATRA is converted into the metabolites.
The C-4 substituted ATRA analogs are tested at two concentrations, 500 and 1000 nM. IC50 and Ki values are determined.
Incubation of [11,12-^3]ATRA with hamster liver microsomes as described above results in the formation of polar metabolites, including 4-hydroxy-ATRA and 4-oxo-ATRA (see FIG. 7A). […] VN/14-1RA inhibits cytochrome P450-dependent metabolism of ATRA.
Table 2B represents repeated testing of some of the compounds in Table 2A and testing on additional compounds. For comparison, the IC50 values of liarozole and ketoconazole (known inhibitors of ATRA 4-hydroxylase) were also determined.

MCF-7Ca tumors = assay: Growth of MCF-7Ca tumors in mice; format: in vivo; settings: 10 mg/kg, after twenty-eight days
Experimental: FIG. 12. VN/14-1RA inhibition of growth of MCF-7Ca tumors in nude mice.
LNCaP cells are cultured as described above. Subconfluent cell are scraped into DPBS, counted and suspended in Matrigel (3×10^7 cells/mL). Male SCID mice 4-6 weeks old are obtained from NCI, Frederick, Md. Each mouse is inoculated s.c. with 0.1 mL of the cell suspension at two sites. Growth rate are determined from tumor volumes using calipers using well-known techniques (Yue W, Wang J, Savinov A, Brodie A, Effect of aromatase inhibitors on growth of mammary tumors in a nude mouse model, Cancer Res, July 15; 55(14):3073-7 (1995). Tumor volumes are calculated according to the equation: V=4/3×π×r1^2×r2 (r1<r2). Tumors are allowed to grow for 4-5 weeks following cell inoculation. Mice are then grouped (6 mice per group) for castration or treatment with vehicle, liarozole (as a comparison), or one of the C-4 substituted ATRA analogs (at various concentration based on IC50 and/or Ki values for each novel compound, mg/kg/day). The route of administration of C-4 substituted ATRA analogs include s.c., i.m., i.p., and oral. Tumors are measured weekly for 4-5 weeks of treatment and tumor volumes calculated. Blood is collected from the euthanized animals that are autopsied 1 hour after the last injection. Tumors are excised, weighed and stored at −80° C. until required. […]

PC-3 cells = settings: 9 days, with ATRA (1 nM), FIG. 16
Experimental: Experiments are conducted on two prostate cancer cell lines, LNCaP cells and PC-3 cells.
This method also is repeated using PC-3 cells.
PC-3 cells were incubated with test compounds for 9 days with medium changes on days 2, 5, and 7 and proliferation assessed as described above.

PC-3 tumors = assay: Growth of PC-3 tumors in male nude mice; format: in vivo; settings: PC-3 xenografts
Experimental: FIG. 20: Effect of ATRA and VN/50A-1 on PC 3 Tumor Volumes in Male Nude Mice
The effects of VN/50A-1 on tumor growth was determined in mouse xenografts and compared to ATRA as the reference treatment (FIG. 20). Mice were grouped 35 days after cell inoculation when measurable tumor volume was approximately 500 mm^3. Total tumor volume in the control mice increased 5.4-fold over 7 weeks and tumor volume in the mice treated with ATRA increased by 3.2-fold (41% reduction compared with control). In the mice treated with VN/50A-1, tumor volume increased by 3.5-fold, which was 38% reduction versus control mice, which correlated well with accumulation of ATRA in plasma and in tumors. […] VN/50A-1 is completely eliminated from plasma within 3 hour of administration to mice (see FIG. 18). The inventive compounds with longer half-lives will have favorable bioavailability and are expected to be more efficacious.

ATRA 4-hydroxylase, sequence (A0A1U7QD41 entry or part of it): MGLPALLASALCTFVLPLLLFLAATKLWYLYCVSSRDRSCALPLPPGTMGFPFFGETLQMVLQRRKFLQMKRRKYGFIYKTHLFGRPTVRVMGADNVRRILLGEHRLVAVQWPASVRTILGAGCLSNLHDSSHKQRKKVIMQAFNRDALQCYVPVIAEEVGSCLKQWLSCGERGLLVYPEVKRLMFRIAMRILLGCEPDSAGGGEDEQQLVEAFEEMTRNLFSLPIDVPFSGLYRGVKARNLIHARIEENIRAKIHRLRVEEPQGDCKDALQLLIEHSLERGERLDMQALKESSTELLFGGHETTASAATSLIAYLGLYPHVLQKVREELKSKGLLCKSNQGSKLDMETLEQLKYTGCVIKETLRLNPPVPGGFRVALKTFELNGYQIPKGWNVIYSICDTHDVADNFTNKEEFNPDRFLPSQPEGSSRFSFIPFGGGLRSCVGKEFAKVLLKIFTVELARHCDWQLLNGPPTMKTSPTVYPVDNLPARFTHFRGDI

| SMILES | microsomal conversion of ATRA to polar metabolites (ATRA 4-hydroxylase; 1 μM compound, hamster liver microsomes, FIG. 7B) | IC50 (ATRA 4-hydroxylase; hamster liver microsomes, Table 2A, initial testing, read-out: IC50 Value) [nM] | IC50 (ATRA 4-hydroxylase; hamster liver microsomes, Table 2B, repeated testing and additional compounds, read-out: IC50 Value, Inhibition of ATRA 4-Hydroxylase) [nM] | size of MCF-7Ca tumors relative to control group (MCF-7Ca tumors) | antiproliferative effect on PC-3 cells (PC-3 cells) | fold more potent than liarozole (ATRA 4-hydroxylase; ratio of IC50 values, liarozole IC50 6,000 nM) | tumor weights versus control mice (PC-3 tumors) | reduction of tumor volume compared with control (PC-3 tumors; over 7 weeks) [%] | increase of total tumor volume (PC-3 tumors; over 7 weeks, control 5.4-fold) [fold] |
| --- | --- | --- | --- | --- | --- | --- | --- | --- | --- |
| CC1=C(/C=C/C(C)=C/C=C/C(C)=C/C(=O)O)C(C)(C)CCC1n1ccnc1 (racemic) [VN/14-1, (±)-4-(1H-imidazole-1-yl)retinoic acid] | significantly suppressed | 100 ± 1 | 1.2 ± 0.072 | one-half | clearly more effective than liarozole |  |  |  |  |
| CC(C=CC1=C(C)C(n2ccnc2)CCC1(C)C)=CC=CC(C)=CC(=O)n1ccnc1 (stereo not drawn) [VN/50A-1] |  |  |  |  |  | 240,000 fold | significantly (P<0.05) lower | 38 | 3.5 |
